Results taken from PubChem BioAssay AID1963976 (Molecular Pharmacology Branch, DTP, NCI, 2024).

System: 435261-313-R-J1-PDC tumor spheroid viability
Experiment: Anticancer human tumor 435261-313-R-J1-PDC patient-derived colon adenocarcinoma cell line growth inhibition [PI3K]
Conditions: spheroids with HUVEC and MSC; for IC50: curve of first compound; for viability, T/C: stronger effect = lower value
Excerpt: Combinatorial screen of targeted agents with the PI3K inhibitors inavolisib, alpelisib, duvelisib, and copanlisib in multi-cell type tumor spheroids
A high-throughput screen of multi-cell type tumor spheroids was designed to identify active combinations of targeted small molecules and PI3K pathway inhibitors. Complex spheroids include a stromal component modeled by human endothelial cells (HUVEC) and fibroblasts modeled by human mesenchymal stem cells (MSCs). The concentration ranges selected for each drug and investigational agent were based upon clinically achievable concentrations if the clinical Cmax of the agent was known.
Compounds. The drugs and investigational agents: inavolisib (NSC800729), alpelisib (NSC765974), duvelisib (NSC772469), copanlisib (NSC816437), ipatasertib (NSC767898), afuresertib (NSC778305), talazoparib (NSC767125), sapanisertib (NSC764658), selumetinib (NSC741078), tovorafenib (DAY101, NSC766906), vemurafenib (NSC761431), ravoxertinib (NSC781343), sotorasib (NSC818433), MRTX1133 (NSC 836407), abemaciclib (NSC 768073), palbociclib (NSC758247), venetoclax (NSC 766270), SY5609 (NSC837396), enzalutamide (NSC755605), and darolutamide (NSC825331), were obtained from the National Cancer Institute (NCI) Developmental Therapeutics Program Chemical Repository. The FDA-approved anticancer drug set is available from the NCI Developmental Therapeutics Program. […] The stock solutions were prepared in dimethyl sulfoxide (DMSO, Sigma-Aldrich, St. Louis, MO, cat. D2650) at 800-fold the tested concentration and stored at -70 degrees C prior to their use. All drugs and investigational agents were tested over a range starting from a high concentration at or near the clinical Cmax and decreasing in half-log increments. If the clinical Cmax for an agent had not been determined, the highest concentration tested was 10 microM.
Cell Culture. All cells were maintained in an incubator at 37 degrees C and 5% CO2 with 95% humidity. The PDC lines were cultured according to standard operating procedures established by the NCI PDMR (https://pdmr.cancer.gov/sops/default.htm). All PDCs were thawed and cultured in Matrigel-coated flasks prepared with a working solution of 1X Ham's F-12 nutrient mix, without supplementation (Invitrogen, Waltham, MA, cat. 11765054), 100 U/mL penicillin-streptomycin (Invitrogen, cat. 15140122), and 2.5% Matrigel (Corning Inc., Corning, NY, cat. 354248) for the first three passages. The 354836-022-R-J1-PDC, 475296-252-R-J1-PDC, and 997726-040-R-J2-PDC lines were cultured in 6A media, which includes advanced DMEM/F-12 (Thermo Fisher Scientific, cat. 12634028), 10 mM HEPES (Thermo Fisher Scientific, cat. 15630080), 1X GlutaMAX supplement (Thermo Fisher Scientific, cat. 35050061), 0.1 mg/mL primocin (InvivoGen, San Diego, CA, cat. ant-pm-2), 10% defined fetal bovine serum, heat inactivated (HyClone Laboratories Inc., Logan, UT, cat. SH30070.03HI), 50% L-WRN conditioned media (ATCC, cat. CRL-3276), 1.25 mM N-Acetyl-L-cysteine (Sigma-Aldrich, cat. A9165), 10 mM nicotinamide (Sigma-Aldrich, cat. N0636), 1X B-27 supplement (Thermo Fisher Scientific, cat. 17504044), 1X N-2 supplement (Thermo Fisher Scientific, cat. 17502048), and 10 microM Y-27632 dihydrochloride (Tocris Bioscience, Bristol, United Kingdom, cat. 1254). The 624824-186-R-J2-PDC line was cultured in 6C/Colon 1B media, which includes all 6A media components plus 50 ng/mL human EGF recombinant protein (Thermo Fisher Scientific, cat. PHG0311). […]

[1] = second compound 0.00316 µM, first compound 0.0316 µM
[2] = second compound 0.00316 µM, first compound 0.1 µM
[3] = second compound 0.01 µM, first compound 0.0316 µM
[4] = second compound 0.01 µM, first compound 0.1 µM
[5] = second compound 0.0316 µM, first compound 0.0316 µM
[6] = second compound 0.0316 µM, first compound 0.1 µM
[7] = second compound 0.1 µM, first compound 0.0316 µM
[8] = second compound 0.1 µM, first compound 0.1 µM
[9] = second compound 0.316 µM, first compound 0.0316 µM
[10] = second compound 0.316 µM, first compound 0.1 µM
[11] = second compound 1 µM, first compound 0.0316 µM
[12] = second compound 1 µM, first compound 0.1 µM

CC(=O)c1c(C)c2cnc(Nc3ccc(N4CCNCC4)cn3)nc2n(C2CCCC2)c1=O + CC(Nc1ccc2c(c1)OCCn1cc(N3C(=O)OCC3C(F)F)nc1-2)C(N)=O
IC50 (second compound 0.00316 µM): > 100 nM | IC50 (second compound 0.01 µM): > 100 nM | IC50 (second compound 0.0316 µM): 69.5 nM | IC50 (second compound 0.1 µM): 0.458 nM | IC50 (second compound 0.316 µM): < 0.316 nM | IC50 (second compound 1 µM): < 0.316 nM | viability, T/C (second compound 0.00316 µM, first compound 0.000316 µM): 78.8% | viability, T/C (second compound 0.00316 µM, first compound 0.001 µM): 91.4% | viability, T/C (second compound 0.00316 µM, first compound 0.00316 µM): 92.8% | viability, T/C (second compound 0.00316 µM, first compound 0.01 µM): 82.7% | viability, T/C [1]: 84.2% | viability, T/C [2]: 59.2% | viability, T/C (second compound 0.01 µM, first compound 0.000316 µM): 94.7% | viability, T/C (second compound 0.01 µM, first compound 0.001 µM): 83.6% | viability, T/C (second compound 0.01 µM, first compound 0.00316 µM): 100% | viability, T/C (second compound 0.01 µM, first compound 0.01 µM): 91.7% | viability, T/C [3]: 87.5% | viability, T/C [4]: 68.6% | viability, T/C (second compound 0.0316 µM, first compound 0.000316 µM): 64.2% | viability, T/C (second compound 0.0316 µM, first compound 0.001 µM): 66.7% | viability, T/C (second compound 0.0316 µM, first compound 0.00316 µM): 76.9% | viability, T/C (second compound 0.0316 µM, first compound 0.01 µM): 86.2% | viability, T/C [5]: 69.1% | viability, T/C [6]: 40.4% | viability, T/C (second compound 0.1 µM, first compound 0.000316 µM): 49.2% | viability, T/C (second compound 0.1 µM, first compound 0.001 µM): 52.7% | viability, T/C (second compound 0.1 µM, first compound 0.00316 µM): 38.8% | viability, T/C (second compound 0.1 µM, first compound 0.01 µM): 32.5% | viability, T/C [7]: 33.6% | viability, T/C [8]: 23.6% | viability, T/C (second compound 0.316 µM, first compound 0.000316 µM): 21.7% | viability, T/C (second compound 0.316 µM, first compound 0.001 µM): 22% | viability, T/C (second compound 0.316 µM, first compound 0.00316 µM): 19.3% | viability, T/C (second compound 0.316 µM, first compound 0.01 µM): 21.5% | viability, T/C [9]: 20.5% | viability, T/C [10]: 18.1% | viability, T/C (second compound 1 µM, first compound 0.000316 µM): 16.8% | viability, T/C (second compound 1 µM, first compound 0.001 µM): 17.1% | viability, T/C (second compound 1 µM, first compound 0.00316 µM): 17.7% | viability, T/C (second compound 1 µM, first compound 0.01 µM): 16.5% | viability, T/C [11]: 18.2% | viability, T/C [12]: 12.2%

CNC(=O)c1ccc(N2C(=S)N(c3ccc(C#N)c(C(F)(F)F)c3)C(=O)C2(C)C)cc1F + CC(Nc1ccc2c(c1)OCCn1cc(N3C(=O)OCC3C(F)F)nc1-2)C(N)=O
IC50 (second compound 0.00316 µM): > 10000 nM | IC50 (second compound 0.01 µM): > 10000 nM | IC50 (second compound 0.0316 µM): > 10000 nM | IC50 (second compound 0.1 µM): < 31.6 nM | IC50 (second compound 0.316 µM): < 31.6 nM | IC50 (second compound 1 µM): < 31.6 nM | viability, T/C [1]: 73.1% | viability, T/C [2]: 95.5% | viability, T/C (second compound 0.00316 µM, first compound 0.316 µM): 74.7% | viability, T/C (second compound 0.00316 µM, first compound 1 µM): 101% | viability, T/C (second compound 0.00316 µM, first compound 3.16 µM): 106% | viability, T/C (second compound 0.00316 µM, first compound 10 µM): 93.2% | viability, T/C [3]: 81.7% | viability, T/C [4]: 92.6% | viability, T/C (second compound 0.01 µM, first compound 0.316 µM): 77.2% | viability, T/C (second compound 0.01 µM, first compound 1 µM): 96% | viability, T/C (second compound 0.01 µM, first compound 3.16 µM): 141% | viability, T/C (second compound 0.01 µM, first compound 10 µM): 123% | viability, T/C [5]: 69.8% | viability, T/C [6]: 77.3% | viability, T/C (second compound 0.0316 µM, first compound 0.316 µM): 57.7% | viability, T/C (second compound 0.0316 µM, first compound 1 µM): 82.9% | viability, T/C (second compound 0.0316 µM, first compound 3.16 µM): 84.6% | viability, T/C (second compound 0.0316 µM, first compound 10 µM): 68.2% | viability, T/C [7]: 48.9% | viability, T/C [8]: 28.5% | viability, T/C (second compound 0.1 µM, first compound 0.316 µM): 44.9% | viability, T/C (second compound 0.1 µM, first compound 1 µM): 51.9% | viability, T/C (second compound 0.1 µM, first compound 3.16 µM): 36.8% | viability, T/C (second compound 0.1 µM, first compound 10 µM): 29.6% | viability, T/C [9]: 22.3% | viability, T/C [10]: 19.2% | viability, T/C (second compound 0.316 µM, first compound 0.316 µM): 15.5% | viability, T/C (second compound 0.316 µM, first compound 1 µM): 24.6% | viability, T/C (second compound 0.316 µM, first compound 3.16 µM): 24% | viability, T/C (second compound 0.316 µM, first compound 10 µM): 17.5% | viability, T/C [11]: 15.5% | viability, T/C [12]: 15.6% | viability, T/C (second compound 1 µM, first compound 0.316 µM): 15.3% | viability, T/C (second compound 1 µM, first compound 1 µM): 15.2% | viability, T/C (second compound 1 µM, first compound 3.16 µM): 18.8% | viability, T/C (second compound 1 µM, first compound 10 µM): 12.8%
